Our source for the IC50 values is US8158621B2, “Methods of treating or preventing autoimmune diseases with 2,4-pyrimidinediamine compounds” (Rigel Pharmaceuticals, Inc., priority 2002, dated 2012).

SMILES strings stand for the structures. Some results are limits rather than exact numbers.

One test deals with Human Jurkat T-cells (clone N). As to the kind of experiment: Jurkat T-cell activation (anti-TCR, CD69 upregulation). In kind it is cell-based.
Conditions: not given
Summed up: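 Jurkat cells in RPMI + 5% FBS preincubated with compound 1 h at 37 °C, then stimulated with anti-TCR C305 at 500 ng/ml for 20 h. CD69 surface expression stained with anti-CD69-APC and read by flow cytometry; IC50 versus solvent-only control.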
A word on the IC50: it is the concentration that inhibits the measured activity by half. A low value points to greater potency in that assay. `CNC(=O)COc1cccc(Nc2ncc(F)c(Nc3ccc4c(c3)C(N)CCO4)n2)c1` (stereo not drawn) [Compound R950368] yielded an IC50 of 0.125 µM.
With `CC(C)(C)c1cccc(Nc2nc(Nc3cccc(OCCO)c3)ncc2F)c1` [Compound R940282], half-maximal inhibition (IC50) was put at 6.71 µM.
In turn, `Cn1nnnc1COc1ccc(Nc2ncc(F)c(Nc3cccc(O)c3)n2)cc1` [Compound R920861] returned a concentration for half-maximal inhibition (IC50) of 3.28 µM.
Compound `CCOC(=O)C(C)(C)Oc1cccc(Nc2ncc(F)c(Nc3ccc(C)c(O)c3)n2)c1` [Compound R926908] registered an IC50 of 30.6 µM.
On to `CN(CCO)C(=O)c1cc2cc(Nc3ncc(F)c(Nc4cccc(O)c4)n3)ccc2o1` [Compound R926725], for which the IC50 was 3.37 µM.
Same read-out and setting: under `COC(=O)COc1cccc(Nc2ncc(F)c(Nc3cc(C)c(O)c(C)c3)n2)c1` [Compound R945139] stands 13.9 µM; under `CN(C)C(=O)COc1cccc(Nc2ncc(F)c(Nc3ccc4c(c3)NCCO4)n2)c1` [Compound R909290], 1.56 µM.
For `Nc1cccc(Nc2nc(Nc3cccc(NC(=O)CCC(C(=O)O)N4C(=O)c5ccccc5C4=O)c3)ncc2F)c1` (racemic) [Compound R950251], the half-maximal inhibitory concentration (IC50) was > 10 µM.
For `CN(C)C(=O)COc1cccc(Nc2ncc(F)c(Nc3ccc4c(c3)OCCO4)n2)c1` [Compound R925755], half-maximal inhibition (IC50) required 1.91 µM.
The same measure, in the same setting: to `CC(C)(C)OC(=O)COc1ccc(Nc2ncc(F)c(Nc3ccc(OCC(=O)OC(C)(C)C)cc3)n2)cc1` [Compound R926574] belongs > 10 µM; to `CNC(=O)COc1cccc(Nc2ncc(F)c(Nc3ccc4ncccc4c3)n2)c1` [Compound R926883], > 10 µM.
Turning to `OCCCn1ncc2ccc(Nc3ncc(F)c(Nc4ccc5oc(CO)cc5c4)n3)cc21` [Compound R935308], the IC50 stood at 1.27 µM.
`CCOC(=O)CNc1cccc(Nc2ncc(F)c(Nc3cccc(O)c3)n2)c1` [Compound R950216] registered an IC50 of 3.86 µM.
Consider `COc1cc(C(=O)NS(=O)(=O)c2ccccc2C)ccc1Cn1ncc2ccc(Nc3ncc(F)c(Nc4ccc5c(c4)OCCO5)n3)cc21` [Compound R935323], for which the IC50 was > 10 µM.
For `O=C(COc1cccc(Nc2ncc(F)c(Nc3cc(Cl)c(O)c(Cl)c3)n2)c1)N1CCOCC1` [Compound R950187], the half-maximal inhibitory concentration (IC50) is 22.3 µM.
The compound `NC(=O)COc1cccc(Nc2ncc(F)c(Nc3ccc4c(c3)OCCO4)n2)c1` [Compound R926747] yielded a half-maximal inhibitory concentration (IC50) of 3.28 µM.
The compound `CCOC(=O)C(C)Oc1ccc(Nc2ncc(C)c(Nc3ccc(OC(C)C(=O)OCC)cc3)n2)cc1` (racemic) [Compound R926259] had a half-maximal inhibitory concentration (IC50) of 13 µM.
Same read-out and setting: under `OB(O)c1cccc(Nc2ncc(F)c(Nc3ccc4c(c3)OCCO4)n2)c1` [Compound R926837] stands > 10 µM; under `CC(C)c1cccc(Nc2nc(Nc3cccc(OCC(=O)NC[C@@H](O)CO)c3)ncc2F)c1` [Compound R940307], 2.06 µM.
As for `CCOC(=O)COc1cccc(Nc2ncc(F)c(Nc3ccc4c(c3)C(=O)OC4)n2)c1` [Compound R940285], the IC50 was > 10 µM.
`CN1CCN(C(=O)CNc2cccc(Nc3ncc(F)c(Nc4ccc5c(c4)OCCO5)n3)c2)CC1` [Compound R950194] gave an IC50 of 5.13 µM.
Same read-out and setting: to `Fc1cnc(Nc2ccc3c(c2)OCCO3)nc1Nc1ccc2[nH]ncc2c1` [Compound R935267] belongs 3.93 µM; to `Fc1cnc(Nc2ccc(N3CCOCC3)cc2)nc1Nc1ccc(N2CCOCC2)cc1` [Compound R926114], 9.91 µM; to `CNC(=O)COc1cccc(Nc2ncc(F)c(Nc3ccc(Cl)c(-c4nc5ccccc5s4)c3)n2)c1` [Compound R926900], > 10 µM.
Same read-out and setting: under `CNC(=O)Cn1ncc2cc(Nc3ncc(F)c(Nc4ccc5c(c4)OCCO5)n3)ccc21` [Compound R935240] stands 2.71 µM.
On to `O=C(c1cccc(Nc2ncc(F)c(Nc3cccc(O)c3)n2)c1)N1CCOCC1` [Compound R926938], for which the IC50 was > 10 µM.
In turn, `CCOC(=O)COc1cccc(Nc2ncc(F)c(Nc3cc(C)c(O)c(C)c3)n2)c1` [Compound R940253] showed a concentration for half-maximal inhibition (IC50) of 17.4 µM.
On to `CCOC(=O)COc1cccc(Nc2nc(Nc3cccc(C(C)(C)C)c3)ncc2F)c1` [Compound R940266], for which the IC50 was > 10 µM.
Regarding `CNC(=O)COc1cccc(Nc2ncc(F)c(Nc3cnc4c(c3)OCC(=O)N4)n2)c1` [Compound R945242], the IC50 stood at 1.71 µM.
Regarding `O=C1CCOc2ccc(Nc3ncc(F)c(Nc4ccc5c(c4)C(=O)CCO5)n3)cc21` [Compound R950378], the IC50 was > 10 µM.
`CNC(=O)COc1cccc(Nc2ncc(F)c(Nc3ccc(OC)c(CN4CCOCC4)c3)n2)c1` [Compound R940314] yielded a half-maximal inhibitory concentration (IC50) of 7.03 µM.
`COC(=O)c1cc2cc(Nc3nc(Nc4ccc(OCc5nc(-c6ccccc6)no5)cc4)ncc3F)ccc2o1` [Compound R935137] came in with an IC50 of 24.1 µM.
Take `COC(=O)Cn1ncc2ccc(Nc3ncc(F)c(Nc4ccc5c(c4)OCCO5)n3)cc21` [Compound R935208]: inhibition was half-maximal at 2.88 µM (IC50).
`CNC(=O)COc1cccc(Nc2ncc(F)c(Nc3ccc(C)c(O)c3)n2)c1` [Compound R926753] yielded an IC50 of 0.393 µM.
`CN1CCN(C(=O)CNc2cccc(Nc3ncc(F)c(Nc4cccc(NCCO)c4)n3)c2)CC1` [Compound R950240]: the concentration for half-maximal inhibition (IC50) was determined as 8.93 µM.
In the case of `Fc1cnc(Nc2ccc(OCc3nc(-c4ccccc4)no3)cc2)nc1Nc1ccc2c(c1)OCCO2` [Compound R935136], the 50% inhibitory concentration (IC50) was > 10 µM.
In the case of `CNC(=O)COc1cccc(Nc2ncc(F)c(Nc3cccc(C(C)=NO)c3)n2)c1` [Compound R950373], 3.61 µM corresponded to half-maximal inhibition (IC50).
Regarding `CNC(=O)COc1cccc(Nc2ncc(F)c(Nc3ccc4c(c3)OCCN4C)n2)c1` [Compound R908705], the half-maximal inhibitory concentration (IC50) was 5.88 µM.
`CNCCOc1cccc(Nc2ncc(F)c(Nc3ccc4c(c3)OCCO4)n2)c1` [Compound R926510] showed a half-maximal inhibitory concentration (IC50) of 0.122 µM.
Take `CCOC(=O)COc1cccc(Nc2ncc(F)c(Nc3ccc4c(c3)NCCO4)n2)c1` [Compound R909242]: the 50% inhibitory concentration (IC50) turned out to be 3.8 µM.
With `O=C(c1cc2cc(Nc3ncc(F)c(Nc4ccc5c(c4)OCCO5)n3)ccc2o1)N1CCNCC1` [Compound R926499], 0.56 µM corresponded to half-maximal inhibition (IC50).
Turning to `CNC(=O)Cn1ncc2ccc(Nc3ncc(F)c(Nc4ccc5cnn(CC(=O)NC)c5c4)n3)cc21` [Compound R935206], the IC50 was > 10 µM.
Compound `COC(=O)c1ccc(Cn2cc3ccc(Nc4ncc(F)c(Nc5cccc(O)c5)n4)cc3n2)c(OC)c1` [Compound R935337] yielded an IC50 of 2.54 µM.
`CNC(=O)COc1cccc(Nc2ncc(F)c(Nc3ccc4c(c3)-n3ccnc3CO4)n2)c1` [Compound R935271] had a half-inhibitory concentration (IC50) of 0.858 µM.
On the same count and under the same terms, under `CCOC(=O)C(C)(C)c1ccc(Nc2nc(Nc3ccc(OC(C)C)cc3)ncc2F)cc1` [Compound R935167] stands > 10 µM; under `CNC(=O)COc1cccc(Nc2ncc(F)c(Nc3ccc(OC)c(OC)c3)n2)c1` [Compound R926733], 3.59 µM.
For `O=C(CNc1cccc(Nc2ncc(F)c(Nc3cccc(O)c3)n2)c1)NCCN1CCOCC1` [Compound R950226], the IC50 worked out at 2.92 µM.
On the same count and under the same terms, under `CNC(=O)COc1cccc(Nc2nc(Nc3cccc(C(C)(C)C)c3)ncc2F)c1` [Compound R940267] stands > 10 µM.

Staying with this test, now noted: Homo sapiens, Jurkat.
As for `Oc1cccc(Nc2nc(NCc3csc4ccccc34)ncc2F)c1` [Compound R945164], the IC50 is > 10 µM.
On the same count and under the same terms, to `CNC(=O)c1cc2cc(Nc3nc(Nc4ccc5c(c4)OCCO5)ncc3F)ccc2o1` [Compound R926491] belongs 2.73 µM.
Compound `OCCOc1cccc(Nc2nc(Nc3cccc(O)c3)ncc2F)c1` [Compound R935170] came in with a concentration for half-maximal inhibition (IC50) of 6.03 µM.
As to `COc1ccc(CNc2ncc(F)c(Nc3ccc4c(c3)OCCO4)n2)cc1` [Compound R926230], the IC50 was > 10 µM.
With `COc1ccc(C)c(Nc2ncc(F)c(Nc3ccc4c(c3)OCCO4)n2)c1` [Compound R926896], the IC50 was > 10 µM.
As to `Fc1cnc(Nc2cccc(OCc3ccccc3)c2)nc1Nc1cccc(OCc2ccccc2)c1` [Compound R926394], the IC50 is > 10 µM.
`CCOC(=O)C1CCN(C(=O)c2cccc(Nc3nc(Nc4cccc(O)c4)ncc3F)c2)CC1` [Compound R926940]: the IC50 is > 10 µM.
For the compound `CN(C)c1cccc(Nc2ncc(F)c(Nc3cccc(N(C)C)c3)n2)c1` [Compound R950182], the half-inhibitory concentration (IC50) is > 10 µM.
Same read-out and setting: under `CCOC(=O)c1cc2cc(Nc3ncc(F)c(Nc4ccc5c(c4)OCCO5)n3)ccc2[nH]1` [Compound R926476] stands 3.9 µM; under `COc1cc(Nc2nc(Cl)ncc2F)c(OC)cc1Cl` [Compound R926858], > 10 µM; under `CC(=O)Nc1cccc(OCCCNc2ncc(F)c(Nc3ccc4c(c3)OCCO4)n2)c1` [Compound R926787], > 10 µM.
Compound `N#Cc1cnc(Nc2ccc3c(c2)OCCO3)nc1Nc1ccc2c(c1)OCCO2` [Compound R925773] came in with an IC50 of 14.4 µM.
With `CC(C)Oc1ccc(Nc2nc(Nc3ccc(OCC(O)CO)cc3)ncc2F)cc1` (stereo not drawn) [Compound R935175], inhibition was half-maximal at 1.74 µM (IC50).
As for `N#Cc1cc(Nc2ncc(F)c(Nc3ccc(O)c(C#N)c3)n2)ccc1O` [Compound R950092], the IC50 is > 10 µM.
Take `Nc1ccc(F)c(Nc2ncc(F)c(Nc3cc(N)ccc3F)n2)c1` [Compound R950158]: half-maximal inhibition (IC50) was put at 21.4 µM.
Still for that read-out and setting: under `Oc1cccc(Nc2nc(Cl)c(Cl)c(Nc3cccc(O)c3)n2)c1` [Compound R926591] stands > 10 µM; under `N#Cc1ccc(Nc2ncc(F)c(Nc3ccc(C#N)cc3)n2)cc1` [Compound R945057], > 10 µM.
For `CC(Nc1nc(Nc2cccc(O)c2)ncc1Br)c1ccc(F)cc1` (racemic) [Compound R935023], the concentration for half-maximal inhibition (IC50) was > 10 µM.
For the compound `CCOC(=O)c1nc(Nc2cccc(O)c2)nc(Nc2cccc(O)c2)c1N` [Compound R925856], the IC50 was > 10 µM.
The same measure, in the same setting: to `COC(=O)c1cc(N)cc(Nc2ccnc(Nc3cc(N)cc(C(=O)OC)c3)n2)c1` [Compound R950132] belongs 4.64 µM; to `CC1(Cl)CC(Nc2ncc(F)c(Nc3ccc4c(c3)-n3ccnc3CO4)n2)=CC=C1O` (stereo not drawn) [Compound R935263], 2.02 µM.
